Data on 33 compounds can be found in ChEMBL document CHEMBL1697731, “Cheminformatics analysis of assertions mined from literature that describe drug-induced liver injury in different species” (Chem Res Toxicol, 2010).

The test system of data set [1] is Hepatotoxicity. Kind of data set: Literature-mined compound from Fourches et al multi-species drug-induced liver injury (DILI) dataset, effect in humans. To be noted: human.
Data set [2] deals with Hepatotoxicity. The data set can be described thus: Literature-mined compound from Fourches et al multi-species drug-induced liver injury (DILI) dataset, effect in non-rodents.
Data set [3] concerns Hepatotoxicity. Kind of data set: Literature-mined compound from Fourches et al multi-species drug-induced liver injury (DILI) dataset, effect in rodents. To be noted: rodentia.

Structures are written as SMILES.

On to `O=C(O)[C@H]1/C(=C/CO)O[C@@H]2CC(=O)N21` [CLAVULANIC ACID], for which the Hepatotoxicity entry is “drug-induced liver injury reported” in data set [1], “no drug-induced liver injury reported” in data set [2] and “no drug-induced liver injury reported” in data set [3].
Regarding `C[C@H]1C[C@H]2[C@@H]3CCC4=CC(=O)C=C[C@]4(C)[C@@]3(F)[C@@H](O)C[C@]2(C)[C@@]1(O)C(=O)CO` [BETAMETHASONE], the Hepatotoxicity entry is listed as “no drug-induced liver injury reported” in data set [1], “no drug-induced liver injury reported” in data set [2] and “drug-induced liver injury reported” in data set [3].
With `O=C1c2c(O)cccc2Cc2cccc(O)c21` [ANTHRALIN], the Hepatotoxicity result in data set [1] is reported as “drug-induced liver injury reported”; in data set [2] it was “no drug-induced liver injury reported”; in data set [3] it was “drug-induced liver injury reported”.
In the case of `Clc1cccc(Cl)c1N=C1NCCN1` [CLONIDINE], the Hepatotoxicity entry in data set [1] (Liver) is listed as “drug-induced liver injury reported”; in data set [2] (Liver) it was “no drug-induced liver injury reported”; in data set [3] (Liver), “drug-induced liver injury reported”.
On to `C[C@]12C=CC(=O)C=C1CC[C@@H]1[C@@H]2C(=O)C[C@@]2(C)[C@H]1CC[C@]2(O)C(=O)CO` [PREDNISONE], for which the Hepatotoxicity result in data set [1] was “drug-induced liver injury reported”; in data set [2] it was “drug-induced liver injury reported”; in data set [3] it was “no drug-induced liver injury reported”.
On to `O=C(O)c1cc(/N=N/c2ccc(S(=O)(=O)Nc3ccccn3)cc2)ccc1O` [SULFASALAZINE], for which the Hepatotoxicity entry was “drug-induced liver injury reported” in data set [1], “no drug-induced liver injury reported” in data set [2] and “drug-induced liver injury reported” in data set [3].
Turning to `CC1CS(=O)(=O)CCN1/N=C/c1ccc([N+](=O)[O-])o1` (centres undefined) [NIFURTIMOX], the Hepatotoxicity entry in data set [1] (Liver) is “no drug-induced liver injury reported”; in data set [2] (Liver) it was “no drug-induced liver injury reported”; in data set [3] (Liver), “drug-induced liver injury reported”.
In the case of `CCOC(=O)[C@H](CCc1ccccc1)N[C@@H](C)C(=O)N1[C@H](C(=O)O)C[C@@H]2CCC[C@@H]21`, the Hepatotoxicity result in data set [1] is “drug-induced liver injury reported”; in data set [2], “no drug-induced liver injury reported”; in data set [3] it was “drug-induced liver injury reported”.
Regarding `COc1ccc2c(c1)[C@]13CCCC[C@@H]1[C@H](C2)N(C)CC3` [DEXTROMETHORPHAN], the values for the Hepatotoxicity result in data set [1], in data set [2] and in data set [3] were “drug-induced liver injury reported”, “no drug-induced liver injury reported” and “no drug-induced liver injury reported”, respectively.
Consider `CSc1ccc(C(=O)c2[nH]c(=O)[nH]c2C)cc1` [ENOXIMONE], for which the Hepatotoxicity result in data set [1] was “no drug-induced liver injury reported”; in data set [2], “no drug-induced liver injury reported”; in data set [3], “drug-induced liver injury reported”.
On to `CC(=O)OCC(CCn1cnc2cnc(N)nc21)COC(C)=O` [FAMCICLOVIR], for which the figures for the Hepatotoxicity entry in data set [1], in data set [2] and in data set [3] were “drug-induced liver injury reported”, “no drug-induced liver injury reported” and “no drug-induced liver injury reported”, respectively.
For `Oc1ccc(O)cc1` [HYDROQUINONE], the Hepatotoxicity entry in data set [1] (Liver) is on record as “drug-induced liver injury reported”; in data set [2] (Liver), “no drug-induced liver injury reported”; in data set [3] (Liver), “drug-induced liver injury reported”.
In the case of `CCCCC1(CC)C(=O)NC(=O)NC1=O` [BUTETHAL], the figures for the Hepatotoxicity entry in data set [1], in data set [2] and in data set [3] were “no drug-induced liver injury reported”, “no drug-induced liver injury reported” and “drug-induced liver injury reported”, respectively.
Regarding `C=C1CC[C@H](O)C/C1=C/C=C1\CCC[C@]2(C)[C@@H]([C@H](C)CCCC(C)C)CC[C@@H]12` [CHOLECALCIFEROL], the Hepatotoxicity result in data set [1] was “no drug-induced liver injury reported”; in data set [2], “no drug-induced liver injury reported”; in data set [3], “drug-induced liver injury reported”.
As to `O=C([O-])O.[Na+]` [SODIUM BICARBONATE], the Hepatotoxicity result in data set [1] (Liver) is recorded as “no drug-induced liver injury reported”; in data set [2] (Liver) it was “drug-induced liver injury reported”; in data set [3] (Liver), “drug-induced liver injury reported”.
Take `O=c1ccn([C@@H]2O[C@H](CO)[C@@H](O)[C@H]2O)c(=O)[nH]1` [URIDINE]: the Hepatotoxicity entry in data set [1] is recorded as “drug-induced liver injury reported”; in data set [2], “no drug-induced liver injury reported”; in data set [3] it was “drug-induced liver injury reported”.
Turning to `COC1=C(OC)C(=O)C(C/C=C(\C)CC/C=C(\C)CC/C=C(\C)CC/C=C(\C)CC/C=C(\C)CC/C=C(\C)CC/C=C(\C)CC/C=C(\C)CC/C=C(\C)CCC=C(C)C)=C(C)C1=O` [UBIDECARENONE], the values for the Hepatotoxicity entry in data set [1], in data set [2] and in data set [3] were “no drug-induced liver injury reported”, “no drug-induced liver injury reported” and “drug-induced liver injury reported”, respectively.
As for `CN1C(=O)CC(=O)N(c2ccccc2)c2cc(Cl)ccc21` [CLOBAZAM], the figures for the Hepatotoxicity entry in data set [1], in data set [2] and in data set [3] were “drug-induced liver injury reported”, “no drug-induced liver injury reported” and “no drug-induced liver injury reported”, respectively.
As to `CCC(=O)O[C@](Cc1ccccc1)(c1ccccc1)[C@H](C)CN(C)C` [PROPOXYPHENE], the Hepatotoxicity result in data set [1] is listed as “drug-induced liver injury reported”; in data set [2], “no drug-induced liver injury reported”; in data set [3], “drug-induced liver injury reported”.
As to `CCN(CC)CCCC(C)Nc1c2ccc(Cl)cc2nc2ccc(OC)cc12` (centres undefined) [QUINACRINE], the Hepatotoxicity entry in data set [1], in data set [2] and in data set [3] was “drug-induced liver injury reported” throughout.
With `COc1c2occc2cc2ccc(=O)oc12` [METHOXSALEN], the Hepatotoxicity result in data set [1] is listed as “drug-induced liver injury reported”; in data set [2], “no drug-induced liver injury reported”; in data set [3], “drug-induced liver injury reported”.
For the compound `CC1=CC(=O)c2ccccc2C1=O` [MENADIONE], the Hepatotoxicity entry in data set [1], in data set [2] and in data set [3] was “drug-induced liver injury reported” throughout.
For the compound `CCCCCCCCNC(C)C(O)c1ccc(SC(C)C)cc1` (centres undefined) [SULOCTIDIL], the values for the Hepatotoxicity result in data set [1], in data set [2] and in data set [3] were “drug-induced liver injury reported”, “no drug-induced liver injury reported” and “no drug-induced liver injury reported”, respectively.
`CS(=O)(=O)O.Cc1ccc(NC(=O)c2ccc(CN3CCN(C)CC3)cc2)cc1Nc1nccc(-c2cccnc2)n1` [IMATINIB MESYLATE]: the Hepatotoxicity entry in data set [1] is given as “drug-induced liver injury reported”; in data set [2], “no drug-induced liver injury reported”; in data set [3], “drug-induced liver injury reported”.
On to `CC1CCC(C(C)C)C(O)C1` (centres undefined) [MENTHOL], for which the values for the Hepatotoxicity result in data set [1], in data set [2] and in data set [3] were “drug-induced liver injury reported”, “no drug-induced liver injury reported” and “no drug-induced liver injury reported”, respectively.
Regarding `CN(C)CCCN1c2ccccc2Sc2ccc(Cl)cc21` [CHLORPROMAZINE], the Hepatotoxicity entry in data set [1], in data set [2] and in data set [3] was “drug-induced liver injury reported” each time.
With `CCCCC[C@H](O)/C=C/[C@H]1[C@H](O)CC(=O)[C@@H]1CCCCCCC(=O)O` [ALPROSTADIL], the Hepatotoxicity entry in data set [1], in data set [2] and in data set [3] was “drug-induced liver injury reported” in each case.
In the case of `CCCCCc1cc(O)c2c(c1)OC(C)(C)[C@@H]1CCC(C)=C[C@@H]21` [DRONABINOL], the Hepatotoxicity entry was “drug-induced liver injury reported” in data set [1], “no drug-induced liver injury reported” in data set [2] and “drug-induced liver injury reported” in data set [3].
On to `COc1cc(N)c(Cl)cc1C(=O)NC1CCN(CCCOc2ccc(F)cc2)CC1OC` (centres undefined) [CISAPRIDE], for which the Hepatotoxicity result is recorded as “drug-induced liver injury reported” in data set [1], “no drug-induced liver injury reported” in data set [2] and “no drug-induced liver injury reported” in data set [3].
For the compound `FC(F)OC(F)(F)C(F)Cl` (centres undefined), the Hepatotoxicity result in data set [1], in data set [2] and in data set [3] was “drug-induced liver injury reported” in each case.
Take `CNC(=O)[C@@H](NC(=O)[C@H](CC(C)C)[C@H](O)C(=O)NO)C(C)(C)C`: the Hepatotoxicity entry is “no drug-induced liver injury reported” in data set [1], “no drug-induced liver injury reported” in data set [2] and “drug-induced liver injury reported” in data set [3].
Consider `CC(C)NCC(O)c1ccc(O)c(O)c1` (centres undefined) [ISOPROTERENOL], for which the Hepatotoxicity entry in data set [1] (Liver), in data set [2] (Liver) and in data set [3] (Liver) was “drug-induced liver injury reported” in each case.
As for `CC(C)c1cc(C(C)C)c(CC(=O)NS(=O)(=O)Oc2c(C(C)C)cccc2C(C)C)c(C(C)C)c1` [AVASIMIBE], the Hepatotoxicity entry was “drug-induced liver injury reported” in data set [1], “no drug-induced liver injury reported” in data set [2] and “drug-induced liver injury reported” in data set [3].
